In patent US6472348B1, “Pyridone derivatives and herbicides” (Kumiai Chemical Industry Co., Ltd., priority 1996, dated 2002):

Tests used:
barnyardgrass (Ec) [1] = assay: Test Example 1: herbicidal effects by paddy field soil treatment; format: in vivo; conditions: 100 g of the active ingredient per 10 ares, 21st day after the application, index 0-5 of Table 47;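 note: grade of growth control; 5 = at least 90%; 4 = 70 to 90%; 3 = 50 to 70%; 2 = 30 to 50%; 1 = 10 to 30%; 0 = under 10%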
Procedure, shortened: (§1)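 Scoring of herbicidal effect came 21 days after application of 100 g active ingredient per 10 ares to flooded (3 cm) paddy-soil pots sown with barnyardgrass, monochoria and bulrush, kept in a greenhouse.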

bulrush (Sc) = assay: as above; format: in vivo; conditions: 100 g of the active ingredient per 10 ares, 21st day after the application, index 0-5 of Table 47;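 note: grade of growth control; 5 = at least 90%; 4 = 70 to 90%; 3 = 50 to 70%; 2 = 30 to 50%; 1 = 10 to 30%; 0 = under 10%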
Procedure, shortened: as §1

monochoria (Mo) = assay: as above; format: in vivo; conditions: 100 g of the active ingredient per 10 ares, 21st day after the application, index 0-5 of Table 47;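 note: grade of growth control; 5 = at least 90%; 4 = 70 to 90%; 3 = 50 to 70%; 2 = 30 to 50%; 1 = 10 to 30%; 0 = under 10%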
Procedure, shortened: as §1

slender amaranth (Am) = assay: Test Example 3: herbicidal effects by upland field foliage treatment; format: in vivo; set-up: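 grade of growth control; 5 = at least 90%; 4 = 70 to 90%; 3 = 50 to 70%; 2 = 30 to 50%; 1 = 10 to 30%; 0 = under 10%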
Procedure, shortened: (§2)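 Greenhouse test, upland conditions: seeds sown in sand pots of 120 cm^2 area and overlaid with soil; 2 weeks growth; leaves treated; herbicidal injury graded on day 14 after treatment by fixed standards.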

Diaitaria ciliaris (Di) = assay: as above; format: in vivo; set-up: scale not given here
Procedure, shortened: as §2

barnyardgrass (Ec) [2] = assay: as above; format: in vivo; set-up: scale not given here
Procedure, shortened: as §2

rice flatsedge (Ci) = assay: as above; format: in vivo; set-up: scale not given here
Procedure, shortened: as §2

[3] = test system: common lambsquarters (Ch); assay: as above; format: in vivo; set-up: scale not given here
Procedure, shortened: as §2

soybean (Gl) = assay: Test Example 6: crop plant selectivity by upland field soil treatment (soybean), phytotoxicity; format: in vivo; set-up: scale not given here; conditions: 21st day after application
Procedure, shortened: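 Soybean and weed seeds were sown in sand-filled pots and covered with soil, then given a pre-emergence soil application. Plants were grown on in a greenhouse, and herbicidal effect and crop phytotoxicity were scored against a set rating scale 21 days after application.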

cotton (Go) = assay: Test Example 4: crop plant selectivity by upland field soil treatment (cotton), phytotoxicity; format: in vivo; set-up: scale not given here; conditions: evaluated 21st day after application
Procedure, shortened: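 Sand-filled pots, seeds sown then soil-covered; soil application; greenhouse culture; visual scoring of weed control and cotton injury at day 21 post-application.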

corn (Ze) = assay: Test Example 7: crop plant selectivity by upland field soil treatment (corn), phytotoxicity; format: in vivo; set-up: scale not given here; conditions: 21st day after application
Procedure, shortened: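 Corn and weeds (green foxtail, pale smartweed, slender amaranth, common lambsquarters, China jute) sown in sand-filled pots, covered with soil and treated by soil application. Grown in a greenhouse; herbicidal effect and crop phytotoxicity scored on day 21 after application using a fixed rating scale.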

wheat (Tr) = assay: Test Example 9: crop plant selectivity by upland field foliage treatment (wheat), phytotoxicity; conditions: dose 1.6 g ai/10a, 14th day after treatment;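 note: grade of crop injury; 5 = at least 90%; 4 = 70 to 90%; 3 = 50 to 70%; 2 = 30 to 50%; 1 = 10 to 30%; 0 = under 10%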
Procedure, shortened: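 Seeds of wheat, pale smartweed, slender amaranth, common lambsquarters and China jute are sown in sand and grown 2 weeks under glass. Foliage is then treated, culture resumes in the greenhouse, and damage is graded on the 14th day.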

[4] = 100 g active ingredient per 10 ares, evaluated 14th day after treatment
[5] = 100 g of the active ingredient per 10 ares, evaluated on the 14th day after treatment

Row | Compound | Herbicidal effects Ec (barnyardgrass (Ec) [1]) | Herbicidal effects Sc (bulrush (Sc)) | Herbicidal effects Mo (monochoria (Mo)) | Herbicidal effects Am (slender amaranth (Am); [4]) | Herbicidal effects Di (Diaitaria ciliaris (Di); [4]) | Herbicidal effects Ec (barnyardgrass (Ec) [2]; [4]) | Herbicidal effects Ci (rice flatsedge (Ci); [4]) | Herbicidal effects Ch [3, 4] | Phytotoxicity Gl (soybean (Gl); dose 1.6 g ai/10a) | Phytotoxicity Go (cotton (Go); dose 1.6 g ai/10 a) | Phytotoxicity Go (cotton (Go); dose 6.3 g ai/10 a) | Herbicidal effects Am (slender amaranth (Am); [5]) | Herbicidal effects Di (Diaitaria ciliaris (Di); [5]) | Herbicidal effects Ec (barnyardgrass (Ec) [2]; [5]) | Herbicidal effects Ci (rice flatsedge (Ci); [5]) | Herbicidal effects Ch [3, 5] | Phytotoxicity Ze (corn (Ze); dose 1.6 g ai/10a) | Phytotoxicity Ze (corn (Ze); dose 6.3 g ai/10a) | Phytotoxicity Tr (wheat (Tr)) | Phytotoxicity Gl (soybean (Gl); dose 6.3 g ai/10a)
1 | C#CC(C)Oc1cc(-c2cn(C)c(C(F)(F)F)cc2=O)c(F)cc1Cl (racemic) [Compound 6-10] | 5 | 5 | 5 | 5 | 5 | 5 | 5 | 5 | 0 | 0 | 1 |  |  |  |  |  |  |  |  | 
2 | COc1cc(-c2ccc(C(F)(F)F)n(C)c2=O)c(F)cc1Cl [1-15] | 5 | 5 | 5 |  |  |  |  |  | 2 | 0 | 1 | 5 | 5 | 5 | 5 | 5 | 1 |  |  | 
3 | C=CCOc1cc(-c2ccc(C(F)(F)F)n(C)c2=O)c(F)cc1Cl [1-16] | 5 | 5 | 5 |  |  |  |  |  | 1 | 0 | 0 | 5 | 5 | 5 | 5 | 5 | 0 | 1 | 2 | 
4 | C#CC(C)Oc1cc(-c2ccc(C(F)(F)F)n(C)c2=O)c(F)cc1Cl (stereo not drawn) [1-17] | 5 | 5 | 5 |  |  |  |  |  | 0 | 0 | 0 | 5 | 5 | 5 | 5 | 5 | 1 | 1 |  | 
5 | C#CCOc1cc(-c2ccc(C(F)(F)F)n(C)c2=O)c(F)cc1Cl [1-18] | 5 | 5 | 5 |  |  |  |  |  | 1 | 1 | 1 | 5 | 5 | 5 | 5 | 5 | 1 | 2 |  | 
6 | Cn1c(C(F)(F)F)ccc(-c2cc(OCC#N)c(Cl)cc2F)c1=O [1-25] | 5 | 5 | 5 |  |  |  |  |  |  |  | 1 | 5 | 5 | 5 | 5 | 5 |  | 1 | 2 | 2
7 | Cc1cc(-c2ccc(C(F)(F)F)n(C)c2=O)c(F)cc1Cl [1-90] | 5 | 5 | 5 |  |  |  |  |  | 2 |  | 1 | 5 | 5 | 5 | 5 | 5 | 1 | 2 |  | 2
8 | Cn1c(C(F)(F)F)ccc(-c2cc(Cl)c(Cl)cc2F)c1=O [1-136] | 5 | 5 | 5 |  |  |  |  |  | 0 |  | 1 | 5 | 5 | 5 | 5 | 5 | 1 |  |  | 1
9 | Cn1c(C(F)(F)F)ccc(-c2cc(OCC(F)(F)F)c(Cl)cc2F)c1=O [1-155] | 5 | 5 | 5 |  |  |  |  |  | 0 | 0 | 0 | 5 | 5 | 5 | 5 | 5 | 0 | 0 |  | 0
10 | C#CCOc1cc(-c2ccc(C(F)(F)F)n(N)c2=O)c(F)cc1Cl [1-178] | 5 | 5 | 5 |  |  |  |  |  |  | 1 | 1 | 5 | 5 | 5 | 5 | 5 | 2 |  | 2 | 
11 | COc1cc(-c2ccc(C(F)(F)F)n(N)c2=O)c(F)cc1Cl [1-179] | 5 | 5 | 5 |  |  |  |  |  |  |  | 0 | 5 | 5. | 5 | 5 | 5 |  | 1 | 2 | 
12 | CCOCOc1cc(-c2ccc(C(F)(F)F)n(C)c2=O)c(F)cc1Cl [1-181] | 5 | 5 | 5 |  |  |  |  |  |  |  | 0 | 5 | 5 | 5 | 5 | 5 |  |  | 2 | 1
13 | C=CCN1C(=O)COc2cc(F)c(-c3ccc(C(F)(F)F)n(C)c3=O)cc21 [Compound 2-7] | 5 | 5 | 5 | 5 | 5 | 5 | 5 | 5 | 0 | 0 | 1 |  |  |  |  |  |  |  |  | 0
14 | C#CCN1C(=O)COc2cc(F)c(-c3cn(C)c(C(F)(F)F)cc3=O)cc21 [Compound 7-1] | 5 | 5 | 5 | 5 | 5 | 5 | 5 | 5 |  |  | 1 |  |  |  |  |  |  |  | 2 | 1
15 | CON=Cc1cc(-c2ccc(C(F)(F)F)n(C)c2=O)c(F)cc1Cl [Compound No. 1-72, 5-(1-methyl-6-trifluoromethyl-2(1H)-pyridon-3-yl)-2-chloro-4-fluorobenzaldehydeoxime-O-methyl ether] | 5 | 5 | 5 |  |  |  |  |  | 1 | 0 | 0 | 5 | 5 | 5 | 5 | 5 | 0 |  |  | 2
16 | C#CCN1C(=O)COc2cc(F)c(-c3ccc(C(F)(F)F)n(C)c3=O)cc21 [Compound No. 2-1, 3-[7-fluoro-2,3-dihydro-4-(2-propynyl)-1,4-benzoxazin-3-on-6-yl]-1-methyl-6-trifluoromethyl-2(1H)-pyridone] | 5 | 5 | 5 | 5 | 5 | 5 | 5 | 5 | 0 | 2 |  |  |  |  |  |  |  |  |  | 1
17 | C#CCn1c(=O)sc2cc(F)c(-c3ccc(C(F)(F)F)n(C)c3=O)cc21 [Compound No. 3-1, 3-[6-fluoro-3-(2-propynyl)-benzothiazolin-2-on-5-yl]-1-methyl-6-trifluoromethyl-2(1H)-pyridone] | 5 | 5 | 5 | 5 | 5 | 5 | 5 | 5 |  | 0 | 1 |  |  |  |  |  | 2 | 2 |  | 1
18 | COCc1cc2c(-c3ccc(C(F)(F)F)n(C)c3=O)c(F)cc(Cl)c2o1 [Compound No. 4-4, 3-(7-chloro-5-fluoro-2-methoxymethylbenzofuran-4-yl)-1-methyl-6-trifluoromethyl-2-(1H)-pyridone] | 5 | 5 | 5 | 5 | 5 | 5 | 5 | 5 |  | 0 | 1 |  |  |  |  |  | 1 | 2 |  | 2
19 | Cn1cc(-c2cc(Oc3ccccc3)c(Cl)cc2F)c(=O)cc1C(F)(F)F [Compound No. 6-19, 5-(4-chloro-2-fluoro-5-phenoxyphenyl)-1-methyl-2-trifluoromethyl-4(1H)-pyridone] | 5 | 5 | 5 | 5 | 5 | 5 | 5 | 5 | 0 | 0 | 0 |  |  |  |  |  |  |  |  | 0
20 | Cc1cc2c(-c3cn(C)c(C(F)(F)F)cc3=O)c(F)cc(Cl)c2o1 [Compound No. 9-1, 5-(7-chloro-5-fluoro-2-methylbenzofuran-4-yl)-1-methyl-2-trifluoromethyl-4(1H)-pyridone] | 5 | 5 | 5 | 5 | 5 | 5 | 5 | 5 |  | 0 | 0 |  |  |  |  |  |  |  |  | 
